Here are results for 9 compounds from patent publication US9745346B2, “Antimicrobial peptides and their application” (INFINITEC ACTIVOS S.L., priority 2014, dated 2017).

The IC50 is the concentration that gives 50% inhibition.

Converted amounts (≈) assume the structure as drawn. *1 amine or outer side, *2 acyl side, *3 side chain or, on linkers, in order; H or OH if unused. Where a SMILES comes first, the peptide text is derived from it. The star is where a group is joined. NH(CH2)3(OCH2CH2)2O(CH2)3NH = C(CN[*:1])COCCOCCOCCCN[*:2]; Palmitoyl = CCCCCCCCCCCCCCCC(=O)*

For one series, the system named is LPS from E. Coli 055:B5. Put plainly: LPS-neutralizing activity, chromogenic Limulus Amebocyte Lysate (LAL) test. The class given is biochemical. The note with it: LPS 100 pg/mL, 45 min at 37° C., read-out: LPS-neutralization activity IC50 ± SD. The protocol:
All solutions used in the LPS-neutralizing activity assay were tested to ensure they were endotoxin-free and material was sterilized by heating 3 h at 180° C. LPS from E. Coli 055:B5 and Polymyxin B were purchased from Sigma. LPS-neutralizing activity was measured using the chromogenic Limulus Amebocyte Lysate (LAL) test 40 following the manufacturer's instructions (Cambrex). LAL reagent contains a clottable protein that is activated in the presence of non-neutralized LPS and is an extremely sensitive indicator of the presence of endotoxin. When activated, this enzyme catalyses the release of p-nitroaniline (pNA) from the colorless chromogenic substrate Ac-Ile-Glu-Ala-Arg-pNA. The pNA released was measured photometrically at 405 nm in a Rosys Anthos 2010 microtiter plate reader (Tecnomara AG, Zurich, Switzerland). Peptides were incubated at a range of concentrations (200 to 0.001 μM) with LPS (100 pg/mL) in a 96-well microtiter for 45 min at 37° C. Polymyxin B (10 μg/mL) was used as positive control. LAL (12.5 μL) was added to start the reaction at 37° C. After 16 min, non-neutralized LPS was detected after a 10 min incubation with the chromogenic substrate (25 μ) Acetic acid (25% v/v final concentration) was added to stop the reaction and the absorbance was monitored at 405 nm in a Multiskan Ascent microtiter plate reader (ThermoLabsystems). IC50 (the concentration necessary to in vitro neutralize 50% of LPS) values were determined by a serial dilution assay using 100 pg/mL of LPS and a range of peptide concentrations as mentioned above.

The test system of the next series is Bacillus megaterium. The following applies: 21 h. The procedure:
(§1) Minimum inhibitory concentration (MIC) is the lowest concentration of an antimicrobial that will inhibit the growth occurred between time zero and […].
(§2) The MIC of peptides of examples 1, 2 and 3 was determined using gram negative bacteria (Escherichia Coli, Vibrio angillarum, Vibrio ordalii, Enterobacter aerogenes, Aeromonas hydrophila, Vibrio parahemolyticus, Bacillus Oleronius and Salmonella tiphy) and gram positive bacteria (Bacillus megaterium, Micrococcus luteus, Staphylococcus aureus and Staphylococcus epidermidis).
(§3) To initiate the exponential phase of bacterial growth prior to the assay, a sample of each bacteria type was allowed to grow overnight at 37° C. in Mueller-Hinton broth and incubated at 37° C. MRSA (Methicillin Resistant Staphylococcus aureus) was grown at 35° C. in cation-adjusted MH broth.
(§4) A final concentration of 1×10^5 CFU/ml was used in all assays. The assays were carried out in 96-well flat-bottom plates. Bacterial suspension in 2× concentrated broth was added to the different peptides at concentrations that varied from 2.500 to 1 μ/mL in H2O in serial twofold dilutions (Time t0). The plates were then incubated for 21 h (Time tf) at 37° C. […] The concentration necessary to inhibit 50% bacterial growth (IC50) could be by using sigmoidal curve-fitting software.

The next series relates to Bacillus oleronius. The following applies: 21 h. The procedure:
as §1, §2, §3, §4

A further series has as its system E. Coli. The note with it: 21 h. The procedure: as §1, §2, §3, §4
For another series, the system named is Enterobacter hydrophila. The note with it: 21 h. The procedure: as §1, §2, §3, §4
The next series relates to Micrococcus luteus. The note with it: 21 h. The protocol: as §1, §2, §3, §4
The subject of the next series is Salmonella tiphy. The following applies: 1×10^5 CFU/ml, 21 h at 37° C., optical density at 620 nm. The protocol: as §1, §2, §3, §4
A further series has as its system Staphylococcus aureus. The note with it: 21 h. The procedure:
as §1, §2, §3, §4

Series [1] deals with Staphylococcus epidermidis. The following applies: 21 h. The procedure: as §1, §2, §3, §4
The test system of the next series is Vibrio angillarum. The note with it: 21 h. The protocol:
as §1, §2, §3, §4

The test system of a further series is Vibro ordalii. The note with it: 21 h. The procedure: as §1, §2, §3, §4
The test system of a further series is Fusarium oxysporum. The class given is cell-based. The protocol: (§5) For this essay, diluted spores kept at −80° C. were used (fresh ones in the case of de Saprolegnia sp.), 1×10^4 spores/ml at the specific media for every fungi. 10 μg/ml of tetracycline were added to avoid bacterial action. […] of peptide solution plus […] of spore solution alongside the adequated media are added to a 96 wells microplaque. As a positive control a culture of the spores at the same concentration than the assay but without peptide. The MICs were defined as the lowest concentrations of peptides at which total inhibition of growth is observed and no change in optical density at 595 nm occurred between the measures obtained at t0 and tf.

A further series relates to Neurospora crassa. It counts as cell-based. The procedure: as §5
The subject of another series is Saprolegnia sp. It counts as cell-based. The protocol:
as §5

A further series is described as follows: in vitro. The class given is cell-based. The following applies: human. The procedure: As a safety test for the peptides of the present invention the hemolytic activity was determined by using human erythrocytes (RBCs).
The assays were carried out in 96-well flat-bottom plates against a 0.25% RBC suspension as described elsewhere (Blondelle, S. E., L. R. Simpkins, E. Pérez-Payá, and R. A. Houghten. 1993. Influence of tryptophan residues on melitin's hemolytic activity. Biochim. Biophys. Acta 1202:331-336.).
In brief, peptide mixtures were added to the RBC solution at concentrations that varied from 500 to 4 μg/mL in serial twofold dilutions. Following incubation at 37° C. for 1 hour, the plates were centrifuged at 2.800 rpm for 5 min. The supernatant was separated from the pellet, an its optical density at 414 nm was measured. The hemolytic dose to lyse 50% of RBCs (IC50) was calculated by using the sigmoidal curve-fitting software Graphpad.

As to SGKWKA [compound 4, Ac-SGKWKA-NH2], the IC50 with LPS from E. Coli 055:B5 amounted to 85 ± 1.4 µM.
Still for that read-out and setting: the value for IKISGK [compound 2, Ac-IKISGK-NH2] was 105 ± 1.2 µM; that for AQKRFL [compound 6, Ac-AQKRFL-NH2] was 46 ± 1.1 µM.
As to `CCCCCCCCCCCCCCCC(=O)N[C@@H](CCCCN)C(=O)N[C@@H](C)C(=O)N[C@@H](CCC(N)=O)C(=O)N[C@@H](CCCCN)C(=O)N[C@@H](CCCNC(=N)N)C(=O)N[C@@H](Cc1ccccc1)C(N)=O` [Example 2, Palm-KAQKRF-NH2] (Palmitoyl-KAQKRF-NH2), the “Gram positive bacteria MIC, Bacillus megaterium” value in the series on Bacillus megaterium turned out to be 12.3 µg/mL. The “Gram negative bacteria MIC, Bacillus oleronius” value in the series on Bacillus oleronius came to 9.7 µg/mL. Also, the “Gram negative bacteria MIC, E. Coli” value in the series on E. Coli turned out to be 5.6 µg/mL. Besides, the “Gram negative bacteria MIC, Enterobacter hydrophila” value in the series on Enterobacter hydrophila worked out at 11.3 µg/mL. Besides, the “Gram positive bacteria MIC, Micrococcus luteus” value in the series on Micrococcus luteus came out at 5.6 µg/mL. The “Gram negative bacteria MIC, Salmonella tiphy” value in the series with Salmonella tiphy amounted to 6.1 µg/mL. Moreover, the “Gram positive bacteria MIC, Staphylococcus aureus” value in the series on Staphylococcus aureus came to 5.7 µg/mL. Besides, in series [1], the “Gram positive bacteria MIC, Staphylococcus epidermidis” value stood at 5.6 µg/mL. In the series on Vibrio angillarum, the “Gram negative bacteria MIC, Vibrio angillarum” value stood at 31.0 µg/mL. In the series with Vibro ordalii, the “Gram negative bacteria MIC, Vibro ordalii” value was determined as 7.4 µg/mL. Besides, the “MIC, Fusarium oxysporum” value in the series on Fusarium oxysporum was found to be 0.5 µg/mL (≈ 0.493 µM). Also, in the series with Neurospora crassa, the “MIC, Neurospora crassa” value is 0.2 µg/mL (≈ 0.197 µM). Besides, the “MIC, Saprolegnia sp” value in the series on Saprolegnia sp is 0.1 µg/mL (≈ 0.0986 µM). Also, the HC50 at 1 hour in “in vitro” is greater than 500 µg/mL.
For KISGKW [compound 3, Ac-KISGKW-NH2], the IC50 with LPS from E. Coli 055:B5 amounted to 96 ± 1.1 µM.
As to `CC(=O)N[C@@H](CCCCN)C(=O)N[C@@H](C)C(=O)N[C@@H](CCC(N)=O)C(=O)N[C@@H](CCCCN)C(=O)N[C@@H](CCCNC(=N)N)C(=O)N[C@@H](Cc1ccccc1)C(N)=O` [Example 1, Ac-KAQKRF-NH2] (Ac-KAQKRF-NH2), the “Gram positive bacteria MIC, Bacillus megaterium” value with Bacillus megaterium was found to be 13.7 µg/mL. The “Gram negative bacteria MIC, Bacillus oleronius” value in the series with Bacillus oleronius worked out at 11.9 µg/mL. The “Gram negative bacteria MIC, E. Coli” value with E. Coli came to 10.8 µg/mL. Besides, the “Gram negative bacteria MIC, Enterobacter hydrophila” value in the series with Enterobacter hydrophila amounted to 14.2 µg/mL. In addition, in the series with Micrococcus luteus, the “Gram positive bacteria MIC, Micrococcus luteus” value came out at 6.0 µg/mL. Besides, the “Gram negative bacteria MIC, Salmonella tiphy” value in the series on Salmonella tiphy was 11.7 µg/mL. In addition, in the series with Staphylococcus aureus, the “Gram positive bacteria MIC, Staphylococcus aureus” value came to 11.7 µg/mL. The “Gram positive bacteria MIC, Staphylococcus epidermidis” value in series [1] is 11.4 µg/mL. The “Gram negative bacteria MIC, Vibrio angillarum” value in the series with Vibrio angillarum was found to be 31.2 µg/mL. Moreover, the “Gram negative bacteria MIC, Vibro ordalii” value in the series with Vibro ordalii was 10.2 µg/mL. Also, the “MIC, Fusarium oxysporum” value against Fusarium oxysporum came to 0.9 µg/mL (≈ 1.1 µM). For the same compound, the “MIC, Neurospora crassa” value against Neurospora crassa is 0.9 µg/mL (≈ 1.1 µM). Besides, the “MIC, Saprolegnia sp” value against Saprolegnia sp worked out at 0.2 µg/mL (≈ 0.245 µM). The same compound came in with an HC50 at 1 hour in the series “in vitro” greater than 500 µg/mL.
Take KWKAQK [compound 5, Ac-KWKAQK-NH2]: in the series on LPS from E. Coli 055:B5, the half-maximal inhibitory concentration (IC50) stood at 47 ± 1.1 µM.
Consider `CCCCCCCCCCCCCCCC(=O)N[C@@H](CCCCN)C(=O)N[C@@H](C)C(=O)N[C@@H](CCC(N)=O)C(=O)N[C@@H](CCCCN)C(=O)N[C@@H](CCCNC(=N)N)C(=O)N[C@@H](Cc1ccccc1)C(=O)NCCCOCCOCCOCCCN` [Example 3, Palm-KAQKRF-NH—(CH2)3—(OCH2CH2)3—CH2—NH2] (Palmitoyl-KAQKRF-{NH(CH2)3(OCH2CH2)2O(CH2)3NH}), for which the “Gram positive bacteria MIC, Bacillus megaterium” value in the series on Bacillus megaterium amounted to 12.1 µg/mL. Moreover, the “Gram negative bacteria MIC, Bacillus oleronius” value in the series on Bacillus oleronius was determined as 8.0 µg/mL. Moreover, the “Gram negative bacteria MIC, E. Coli” value with E. Coli was determined as 5.5 µg/mL. The “Gram negative bacteria MIC, Enterobacter hydrophila” value in the series on Enterobacter hydrophila amounted to 11.6 µg/mL. For the same compound, the “Gram positive bacteria MIC, Micrococcus luteus” value in the series on Micrococcus luteus is 5.5 µg/mL. The “Gram negative bacteria MIC, Salmonella tiphy” value in the series with Salmonella tiphy is 5.8 µg/mL. Moreover, the “Gram positive bacteria MIC, Staphylococcus aureus” value in the series on Staphylococcus aureus was determined as 5.5 µg/mL. Moreover, in [1], the “Gram positive bacteria MIC, Staphylococcus epidermidis” value is 5.8 µg/mL. In the series on Vibrio angillarum, the “Gram negative bacteria MIC, Vibrio angillarum” value was found to be 30.0 µg/mL. The “Gram negative bacteria MIC, Vibro ordalii” value in the series with Vibro ordalii amounted to 8.2 µg/mL. Also, in the series on Fusarium oxysporum, the “MIC, Fusarium oxysporum” value amounted to 0.4 µg/mL (≈ 0.329 µM). For the same compound, the “MIC, Neurospora crassa” value in the series with Neurospora crassa is 0.3 µg/mL (≈ 0.246 µM). Moreover, in the series on Saprolegnia sp, the “MIC, Saprolegnia sp” value amounted to 0.1 µg/mL (≈ 0.0821 µM). In addition, the HC50 at 1 hour in the series “in vitro” is greater than 500 µg/mL.
For the compound “IKISGKWKAQKRFLKM [compound 1, Ac-IKISGKWKAQKRFLKM-NH2]”, in the series with LPS from E. Coli 055:B5, the IC50 was determined as 34 ± 1.3 µM.
